Assay [1] has as its target T1, E180D Orai mutant + Stim (Drosophila melanogaster, UniProt Q9U6B8, E178D).
T1 construct: A cDNA clone, pAc5.1/olf186-F, encoding full-length Drosophila olf186-F-RB; expressed in transfected cells; host or cells: Drosophila S2 cells (Invitrogen)
Kind of assay: Whole-cell recording of E180D Orai-induced CRAC current in S2 cells. It counts as cell-based. To be noted: for effect of divalent cation on E180D Orai-induced current: 20 mM external divalent vs 2 mM Ca2+; for IC50: scaled to current in divalent-free solution. An excerpt: (§1) Generation of pAc5.1/EGFP, pAc5.1/D-STIM, pAc5.1/D-STIM-V5-His and pAc5.1/olf186-F (GenBank accession number DQ503470) were as described^5. olf186-F pore mutants were made by exchanging the corresponding codons (E180A: GAG to GCG; E180D: GAG to GAC; D184A: GAT to GCT; D186A: GAT to GCT; N188A: AAT to GCT; FIG. 14) using the QuikChange site-directed mutagenesis kit (Stratagene). The pAc5.1/HA-olf186-F clone was made by adding the HA tag via PCR and re-cloned into the XhoI and NotI sites of pAc5.1/V5-His B expression vector. Resulting clones were confirmed by sequencing. Description of the primers and conditions for cloning is available upon request. Both HA-olf186-F and Stim-V5-His were verified for normal function by whole-cell recording.
(§2) Cells transfected (Amaxa) with Orai and Stim constructs were identified by fluorescence of co-transfected GFP. Patch clamp experiments were performed at room temperature in the standard whole-cell recording, using conditions similar to those reported previously^10. The membrane capacitance of S2 cells selected for recording was 11.6±0.4 pF (n=131 cells). Membrane potentials were corrected for a liquid junction potential of 10 mV between the pipette and bath solution. The series resistance (2-7 MΩ) was not compensated. The membrane potential was held at −10 mV, and 220-ms voltage ramps from −130 to 90 mV alternating with 220-ms pulses to −130 mV were delivered every 2 s. Only cells with high input (>2 GΩ) were selected for recording. External and pipette solution recipes are listed in supplementary table 1. Analyzed data are presented as mean ±SEM.
(§3) Data were analyzed by Pulse (Heka Electronics) and Origin (OriginLab Corp.). Five I-V curves were averaged for display. […] Since almost all S2 cells at the moment of break-in display an outward current that disappears during perfusion with internal solution (but before the inward CRAC current starts to develop), the following procedure for leak subtraction was employed. The first three ramp currents after the outward current subsided were averaged (Imid). Then, another set of three ramps after maximal inward CRAC current had developed were averaged (Imax). The difference between Imax and Imid represents an isolated CRAC current but with amplitude less than the actual one. To correct this the difference was scaled such that the value of current at −130 mV is equal to maximal inward current minus initial inward current. Then the scaled difference was subtracted from Imax followed by fitting with a polynomial function. This fit was considered as the basal leak current. […] In this case a linear I-V curve reversing at 0 mV with current magnitude at +90 mV equal to the sustained outward current was assigned as leak current. For E180D Orai-induced CRAC current, the initial current was considered as leak.

Assay [2] deals with CRAC current in olf186-F+Stim transfected S2 cells. Kind of assay: Whole-cell recording of CRAC current in S2 cells co-transfected with olf186-F (WT Orai) + Stim. To be noted: for CRAC current density: at −130 mV, high-Ca2+ pipette solution, 10 μM IP3 in pipette or TG in bath. It counts as cell-based, Drosophila. As for the experimental part:
Whole-cell recording. Patch-clamp experiments were performed at room temperature in the standard whole-cell recording configuration. The membrane capacitance (a measure of cell surface area) of S2 cells selected for recording was 9.15±0.27 pF (mean ±SEM, n=287 cells, 22 experiments). To calculate current densities, peak current amplitudes were divided by membrane capacitance for each cell.
as §2, §3

In assay [3] the test system is Stim-Orai protein interaction. Kind of assay: Co-immunoprecipitation of Stim and Orai. The class given is cell-based, Drosophila. Conditions: Ca2+ store depletion, 1 μM TG 15 min. As for the experimental part:
Two days after transfection, 5×10^6 cells were treated with either Ringer or zero-Ca^2+ Ringer+1 μM TG using solutions described^6 for 15 min at room temperature. Cells transfected with Stim-V5-His only or HA-olf186-F only were used as controls. Cell extracts were then prepared using RIPA lysis buffer (Upstate) according to manufacturer instructions. The extracts were pre-cleared with protein A/G beads (Pierce) and protein concentration was determined, using the Pierce BCA Protein Reagent Kit. The cell lysate was then diluted to approximately 1 mg/ml total protein with PBS and mixed with either anti-HA monoclonal antibodies (1 μg/100 μg total protein, Santa Cruz) or anti-V5 monoclonal antibodies (1 μg/100 μg total protein, Invitrogen) for 4 hr at 4° C. Equal amount of samples were mixed with either normal mouse IgG or vehicle as negative controls. Protein A/G beads were subsequently added (1 μl/1 μg IgG) to rock overnight at 4° C. Proteins were eluted by boiling in 4× sample buffer (Invitrogen). Samples were resolved by SDS-PAGE and analyzed by standard western blotting techniques. Anti-HA monoclonal antibodies (Santa Cruz) were used at a dilution of 1:200. Anti-V5 monoclonal antibodies (Invitrogen) were used at a dilution of 1:2500. Proteins were detected by developing with the SuperSignal (Pierce) detection system.

Assay [4] has as its target T2, D184A, D186A, N188A Orai mutants + Stim (Drosophila melanogaster, UniProt Q9U6B8, D182A).
T2 construct: A cDNA clone, pAc5.1/olf186-F, encoding full-length Drosophila olf186-F-RB; expressed in transfected cells; host or cells: Drosophila S2 cells (Invitrogen)
Kind of assay: Whole-cell recording of CRAC current of charge-neutralizing Orai mutants, block by Gd3+. The class given is cell-based. To be noted: D184A Orai.
Excerpt: as §1, §2

Assay [5] has as its target T3, D184A, D186A, N188A Orai mutants + Stim (Drosophila melanogaster, UniProt Q9U6B8, D184A).
T3 construct: A cDNA clone, pAc5.1/olf186-F, encoding full-length Drosophila olf186-F-RB; expressed in transfected cells; host or cells: Drosophila S2 cells (Invitrogen)
The assay is described as above. To be noted: D186A Orai. The class given is cell-based.
Excerpt: as §1, §2

The target in assay [6] is T4, D184A, D186A, N188A Orai mutants + Stim (Drosophila melanogaster, UniProt Q9U6B8, N186A).
T4 construct: A cDNA clone, pAc5.1/olf186-F, encoding full-length Drosophila olf186-F-RB; expressed in transfected cells; host or cells: Drosophila S2 cells (Invitrogen)
T4 sequence (P83094 24-570): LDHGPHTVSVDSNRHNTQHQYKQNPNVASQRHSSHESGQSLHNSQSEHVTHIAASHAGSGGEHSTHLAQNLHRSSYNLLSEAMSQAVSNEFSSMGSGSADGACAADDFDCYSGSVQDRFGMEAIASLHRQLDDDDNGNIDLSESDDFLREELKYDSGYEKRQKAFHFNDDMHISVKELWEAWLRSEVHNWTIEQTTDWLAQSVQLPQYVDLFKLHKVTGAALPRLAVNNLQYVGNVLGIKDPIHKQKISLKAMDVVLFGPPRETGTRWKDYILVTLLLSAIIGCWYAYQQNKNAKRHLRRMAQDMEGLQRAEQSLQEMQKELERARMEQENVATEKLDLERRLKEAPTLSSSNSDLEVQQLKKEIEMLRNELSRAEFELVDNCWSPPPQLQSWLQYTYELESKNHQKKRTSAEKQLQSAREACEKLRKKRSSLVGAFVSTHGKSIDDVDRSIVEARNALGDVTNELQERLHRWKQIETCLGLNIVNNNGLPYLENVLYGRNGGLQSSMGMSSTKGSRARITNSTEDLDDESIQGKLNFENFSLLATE
T4 sequence (Q9U6B8 whole entry N186A): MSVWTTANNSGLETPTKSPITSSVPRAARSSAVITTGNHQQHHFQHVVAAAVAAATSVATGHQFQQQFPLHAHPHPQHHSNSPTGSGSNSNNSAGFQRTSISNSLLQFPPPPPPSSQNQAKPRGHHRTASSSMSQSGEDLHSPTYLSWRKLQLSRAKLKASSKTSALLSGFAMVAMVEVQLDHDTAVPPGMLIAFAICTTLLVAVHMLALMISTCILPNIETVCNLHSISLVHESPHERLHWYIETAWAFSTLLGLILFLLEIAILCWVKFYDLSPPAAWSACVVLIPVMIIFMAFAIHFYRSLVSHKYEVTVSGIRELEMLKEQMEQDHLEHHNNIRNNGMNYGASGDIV
The assay is described as above. It counts as cell-based. To be noted: N188A Orai.
Excerpt: as §1, §2

Assay [7] deals with Drosophila S2 cells. Nature of the assay: Single-cell ratiometric fura-2 [Ca2+]i imaging. The class given is cell-based. To be noted: ionomycin in zero-Ca2+ solution, control cells. As for the experimental part:
RNAi in Drosophila S2 cells. RNAi experiments were adapted from the protocols described by Worby et al. (2). Drosophila S2 cells (0.5×10^6) were seeded in T-25 flasks in 2 ml of complete S2 media. The next day, media was removed and replaced with 2 ml serum-free S2 media. 20 μg dsRNA was added and cells were incubated at room temperate for 45 min with gentle rocking. 4 ml S2 media was added and cells were incubated for 5 days at 24° C. Cells were then harvested and either plated for single cell Ca^2+ imaging and patch-clamp experiments or processed for RT-PCR analysis.
Single-cell [Ca2+]i imaging. Ratiometric [Ca2+]i imaging was performed as described, using solution recipes described in Table 3. Transfected cells were recognized by co-expressed enhanced green fluorescent protein (EGFP), using filters to avoid contamination of Fura-2 fluorescence by bleed-through of GFP fluorescence. Data were analysed with Metafluor software (Universal Imaging) and OriginPro 7.5 software (OriginLab) and are expressed as means ±SEM.

Entries after “also recorded” stand apart in the source; their conditions may differ.

As usually defined, the IC50 is the point on the concentration scale where inhibition reaches its midpoint.

T1 sequence (Q9U6B8 whole entry E178D): as the sequence (Q9U6B8 whole entry N186A) above, with E178D, A186N counted along it
T1 sequence (P83094 24-570, further chain): as the sequence (P83094 24-570) above
T2 sequence (P83094 24-570): as above
T2 sequence (Q9U6B8 whole entry D182A): as the sequence (Q9U6B8 whole entry N186A) above, with D182A, A186N counted along it
T3 sequence (P83094 24-570): as the sequence (P83094 24-570) above
T3 sequence (Q9U6B8 whole entry D184A): as the sequence (Q9U6B8 whole entry N186A) above, with D184A, A186N counted along it

With `[Mg+2]` [Mg^2+], in assay [1], the “effect of divalent cation on E180D Orai-induced current” value (shortened to “effect of divalent cation”) is “increased the current”.

For `NCCOB(c1ccccc1)c1ccccc1` [2-APB, 2-aminoethyldiphenyl borate], the figures for the “effect on Ca2+ (CRAC) current” value in assay [2] (5 μM) and in assay [2] (20 μM) were “characteristic potentiation of current before blocking; also recorded: potentiated” and “blocked; also recorded: inhibited”, respectively. The “time course of E180D outward CRAC current” value is listed as “immediate decrease preceding potentiation” in assay [1] (5 μM) and “immediate increase preceding inhibition” in assay [1] (20 μM).

For `C/C=C(/C)C(=O)O[C@H]1C(C)=C2[C@H]([C@@H]1OC(=O)CCCCCCC)[C@@](C)(OC(C)=O)C[C@H](OC(=O)CCC)[C@@]1(O)[C@H]2OC(=O)[C@@]1(C)O` [thapsigargin], in assay [2], the CRAC current density is −7.6±2.5 pA/pF. Further, in assay [3], the “Stim-Orai protein interaction (co-immunoprecipitation)” value is reported as “dramatically increased”.

As to `[Gd+3]` [Gd^3+], the “suppression of native and WT Orai-induced CRAC current” value in assay [2] is “very effectively suppresses”. Also, the “effect on enhanced Ca2+ current” value in assay [2] (50 nM) is “blocked”. In addition, the entries for the “potency of Gd3+ block” value in assay [4], in assay [5] and in assay [6] were “significantly reduced”, “significantly reduced” and “to a lesser degree”, respectively.

Consider `O=P(O)(O)O[C@@H]1[C@H](O)[C@H](O)[C@@H](OP(=O)(O)O)[C@H](OP(=O)(O)O)[C@H]1O` [IP3, inositol 1,4,5-trisphosphate], for which, in assay [2], the CRAC current density is recorded as −11.4±3.1 pA/pF.

As to `[Ca+2]` [Ca^2+], the “effect of divalent cation” value in assay [1] is recorded as “significantly decreased the outward current”. Moreover, the IC50 came out at 48 ± 13 µM in assay [1] (IC50, half-blocking Ca2+ concentration for inward current, at −130 mV) and 2050 ± 780 µM in assay [1] (IC50, half-blocking Ca2+ concentration for outward current, at 90 mV).

As for `[Ba+2]` [Ba^2+], in assay [1], the “effect of divalent cation” value was “significantly increased the inward current while decreasing the outward current”.

Turning to `C[C@H](CCC(=O)O)C[C@H](C)C[C@H](C)C(=O)/C=C(\O)[C@H](C)C[C@H](C)C/C=C/[C@@H](C)[C@@H](O)[C@@H](C)[C@@H](O)C[C@@H]1CC[C@@](C)([C@H]2CC[C@@](C)([C@@H](C)O)O2)O1` [ionomycin], in assay [7], the “peak of Ca2+ release transient” value is about 200 nM.

Take `[Sr+2]` [Sr^2+]: the “effect of divalent cation” value in assay [1] is “had little effect”.

The record behind these values is patent US20080039392A1, “CRAC channel and modulator screening methods” (THE REGENTS OF THE UNIVERSITY OF CALIFORNIA, priority 2006, published 2008).
